Test results taken from patent US9144596B2, “Compositions and methods of treating neoplasia” (University of Florida Research Foundation, Inc., priority 2007, dated 2015).
Entries after “also recorded” stand apart in the source; their conditions may differ.

What was measured:
pol-β [1] = molecular target: T1, pol-β (Homo sapiens, UniProt P06746); test: dRP-lyase activity assay; type: biochemical; settings: 1 nM pol-βwt; various concentrations of test substance
T1 construct: made in house; host or cells: Escherichia coli BL21(DE3)pLysS

pol-β [2] = molecular target: T1, pol-β; test: strand-displacement synthesis, reconstituted in vitro base excision repair assay with 32P-F-DNA; type: biochemical; settings: for pol-β-directed single-nucleotide incorporation: all the concentrations tested; for pol-β-directed strand-displacement synthesis: different concentrations
pol-β [3] = molecular target: T1, pol-β; test: in vitro SN- and LP-BER assay with 32P-U-DNA; type: biochemical; settings: for complete repair of 32P-U-DNA by the SN-BER pathway: absence of Fen-1, DNA ligase I; for complete repair of 32P-U-DNA by the LP-BER pathway: presence of Fen-1, DNA ligase I
HCT-116(APC+/+) cells = test: sulforhodamine B (SRB) colorimetric cytotoxicity assay; type: cell-based, human; settings: for effect on the cytotoxicity of TMZ: 2 hours pretreatment, then TMZ 48 hours
Protocol: (§1) The IC50 (the drug concentration needed to prevent cell proliferation by 50%) of TMZ was determined using a sulforhodamine B (SRB) colorimetric assay. This assay relies on the ability of SRB to bind the protein components of cells that have been fixed to tissue culture plates by trichloroacetic acid (TCA) (Vachai V, Kirtikara K. Sulforhodamine B colorimetric assay for cytotoxicity screening. Nat. Proto. 3: […], 2006). Briefly, the HCT-116(APC^+/+) and HCT-116(APC^−/−) were seeded in 96-well plates at a density of 500 cells per well. After 24 hours, while the cells were in the log phase of cell growth, the cells were treated with different concentrations of TMZ for 48 hours. The cells were subsequently fixed with 10% (w/v) of tricholoroacetic acid, washed with double distilled water, and stained with 0.4% SRB. Cells were then repeatedly washed with 1% (v/v) of acetic acid to remove the unbound dye. The protein bound dye was dissolved in 10 mM Tris-base solution (pH 10.5). The developed color was measured at 564 nm. The percentage of cell survival as a function of drug concentration was then plotted to determine the IC50 value. The IC50 of TMZ in HCT-116(APC^+/+) and HCT-116(APC^−/−) cells was 200 and 400 μM, respectively (FIG. 18A). […] This is consistent with the hypothesis that APC-mediated blockage of base excision repair increase d the sensitivity to TMZ in APC^+/+ cells. SRB assays were then used to determine whether TMZ-induced cytotoxicity was correlative to the increased level of APC in HCT-116(APC^+/+) cells.
(§2) APC blocked base excision repair and sensitized colon cancer cells after TMZ treatment. […] The cellular toxicity was determined by sulforhodamine B (SRB) colorimetric assay as described above. […] The cytotoxicity of these compounds was greater in HCT-116(APC^+/+) cells than in HCT-116(APC^−/−) cells (FIG. 19, compare the results of Panel A with B and C with D, respectively).

HCT-116(APC−/−) cells = test: as above; type: cell-based, human; settings: for effect on the cytotoxicity of TMZ: 2 hours pretreatment, then TMZ 48 hours
Protocol: as §1, §2

[4] = tested on: HCT-116(APC+/+) and HCT-116(APC−/−) colon cancer cell lines; test: SRB cytotoxicity of the compounds alone (FIGS. 19E and F); type: cell-based, human; settings: up to 100 μM concentrations
Protocol: After 48 hours, cells were harvested and processed for cytotoxicity determination as described herein. […] Data are the mean±SE of three different estimations.
(§3) The IC50 (the drug concentration needed to prevent cell proliferation by 50%) of TMZ was determined using a sulforhodamine B (SRB) colorimetric assay. This assay relies on the ability of SRB to bind the protein components of cells that have been fixed to tissue culture plates by trichloroacetic acid (TCA) (Vachai V, Kirtikara K. Sulforhodamine B colorimetric assay for cytotoxicity screening. Nat. Proto. 3: […], 2006). Briefly, the HCT-116(APC^+/+) and HCT-116(APC^−/−) were seeded in 96-well plates at a density of 500 cells per well. After 24 hours, while the cells were in the log phase of cell growth, the cells were treated with different concentrations of TMZ for 48 hours. The cells were subsequently fixed with 10% (w/v) of tricholoroacetic acid, washed with double distilled water, and stained with 0.4% SRB. Cells were then repeatedly washed with 1% (v/v) of acetic acid to remove the unbound dye. The protein bound dye was dissolved in 10 mM Tris-base solution (pH 10.5). The developed color was measured at 564 nm. […]
APC blocked base excision repair and sensitized colon cancer cells after TMZ treatment. […] The cellular toxicity was determined by sulforhodamine B (SRB) colorimetric assay as described above. […]

[5] = tested on: HCT-116-APC(WT)+ch3 cells; test: SRB cytotoxicity assay, MMR-proficient cells; type: cell-based, human
Protocol: (§4) FIGS. 24A and 24D NSC-124854 enhanced the cytotoxicity of TMZ in both MMR-positive and MMR-negative colon cancer cell lines in culture. […] After 48 hours, cells were harvested and processed for cytotoxicity determination. Data presented are the mean±SE of three different estimations.
as §1

SW480 cells = test: SRB cytotoxicity assay, MMR-proficient cells; type: cell-based, human
Protocol: as §4, §1

CACO-2 cells = test: SRB cytotoxicity assay, MMR-deficient cells; type: cell-based; settings: Homo sapiens; CACO-2, TMZ alone, 48 hours
Protocol: (§5) FIGS. 24A and 24D NSC-124854 enhanced the cytotoxicity of TMZ in both MMR-positive and MMR-negative colon cancer cell lines in culture. MMR-proficient [HCT-116-APC(WT)+ch3 and SW480 (Panel 24A and […])] and MMR-deficient [CACO-2 and LoVo (Panel 24C and 24D)] cells were pretreated for 2 hours with 50 μM of NSC-124854 followed by the treatment with different concentrations of TMZ. After 48 hours, cells were harvested and processed for cytotoxicity determination. Data presented are the mean±SE of three different estimations.
as §3, with “SRB.” for “SRB. Cells were then repeatedly washed with 1% (v/v) of acetic acid to remove the unbound dye. The protein bound dye was dissolved in 10 mM Tris-base solution (pH 10.5). The developed color was measured at 564 nm.”

LoVo cells = test: SRB cytotoxicity assay, MMR-deficient cells; type: cell-based; settings: Homo sapiens, TMZ alone, 48 hours
Protocol: as §5
as §3, with “SRB.” for “SRB. Cells were then repeatedly washed with 1% (v/v) of acetic acid to remove the unbound dye. The protein bound dye was dissolved in 10 mM Tris-base solution (pH 10.5). The developed color was measured at 564 nm.”

pol-β [6] = molecular target: T1, pol-β; test: long patch-base excision repair assay with 32P-F-DNA; type: biochemical; settings: pol-βwt, Fen-1, DNA ligase I; 2 μM APCwt peptide
Protocol: To determine whether the blockage in the strand-displacement synthesis by the pol-βMut-1 was sufficient to block long patch-base excision repair, a long patch-base excision repair assay was set up as outlined in FIG. 10A. […] This DNA repair was blocked in the presence of 2 μM APCwt peptide, but not with APC(I-A,Y-A) peptide (FIG. 10B, compare lane 5 with 8 for APCwt and with 9-11 for APC(I-A,Y-A), respectively, for the formation of the 63-mer ligated product). […] The 2-nucleotide strand-displacement synthesis by pol-βMut-1 protein was sufficient to carry out long patch-base excision repair in the presence of Fen-1.
To study long patch- and single nucleotide-base excision repair activities, different types of DNA substrates were used. For long patch-base excision repair activity, an AP-site analog (3-hydroxy-2-hydroxymethyltetrahydrofuran, noted as F) was introduced at the 24th position of the 63-mer DNA (5′-[…] CGACA-3′ (SEQ ID NOS 17-18)), which was called F-DNA (27). For making U-DNA, uracil was introduced at the 24th position of 63-mer sense oligonucleotide (5′-[…] GACA-3′ (SEQ ID NO: 19)). Sense strands of F-DNA and U-DNA were 5′-end labeled by [a-^32P]ATP and T4 polynucleotide kinase and purified with a nick-column (GE Healthcare, Piscataway, N.J.). Later they were annealed with the complementary 63-mer oligonucleotide (5′-[…] CTAG-3′ (SEQ ID NO: 20)) at a 1:1 molar ratio. […]

[7] = 32P-U-DNA substrate, dose-dependent

Compound	pol-β-directed dRP-lyase activity (pol-β [1])	pol-β-directed single-nucleotide incorporation (pol-β [2]; 32P-F-DNA substrate)	pol-β-directed strand-displacement synthesis (pol-β [2]; 32P-F-DNA substrate)	complete repair of 32P-U-DNA by the SN-BER pathway (pol-β [3])	complete repair of 32P-U-DNA by the LP-BER pathway (pol-β [3])	effect on the cytotoxicity of TMZ (HCT-116(APC+/+) cells; HCT-116(APC+/+))	effect on the cytotoxicity of TMZ (HCT-116(APC−/−) cells)	cytotoxicity of the compound alone [4]	complete DNA repair of F-DNA (63-mer ligated product), LP-BER (pol-β [6])	further results
O=C(O)CC(C(=O)O)C(CC(=O)O)C(=O)O (centres unmarked) [CN3]	did not inhibit	unaffected	dose-dependent decrease	–	–	–	–	–	–	–
NC1=NC(=O)N(C2CC(O)C(COP(=O)(O)O)O2)C(I)C1 (centres unmarked) [NSC-124854]	successfully blocked	–	dose-dependent decrease	blocked in a dose-dependent manner	blocked in a dose-dependent manner	increased	increased	very low	–	DNA synthesis (1-nt and strand-displacement) of pol-β (pol-β [2]; 32P-F-DNA substrate): completely blocked; potency among the four compounds tested, strand-displacement synthesis (pol-β [2]; inhibited at lower concentrations): most potent; Pol-β-mediated 1-nt incorporation (pol-β [3]; [7]): blocked; strand-displacement synthesis in the presence of Fen-1 (pol-β [3]; [7]): blocked; reduction of the IC50 of TMZ ([5]; HCT-116-APC(WT)+ch3, combination of 50 μM of NSC-124584): 2.5 fold; reduction of the IC50 of TMZ (SW480 cells; SW480, combination of 50 μM of NSC-124584): 2.5 fold
Cc1cc(S(=O)(=O)Nc2n[nH]c(Nc3ccc(Cl)cc3)n2)c(S)cc1Cl [NSC-666715]	–	–	–	–	–	increased	increased	very low	–	–
Cn1nnc2c(C(N)=O)ncn2c1=O [TMZ, Temozolomide, reference compound]	–	–	–	–	–	–	–	–	–	IC50 (HCT-116(APC+/+) cells; Homo sapiens, HCT-116(APC+/+), 48 hours, SRB, read-out: IC50 of TMZ): 200 µM; sensitivity to TMZ of HCT-116(APC+/+) versus HCT-116(APC−/−) cells (HCT-116(APC+/+) cells; ratio of IC50): 2 times; IC50 (HCT-116(APC−/−) cells; Homo sapiens, 48 hours, SRB, read-out: IC50 of TMZ): 400 µM; IC50 ([5]; Homo sapiens, HCT-116-APC(WT)+ch3, TMZ alone, 48 hours): 100 µM; IC50 (SW480 cells; Homo sapiens, SW480, TMZ alone, 48 hours): 120 µM; IC50 (CACO-2 cells): 364 µM; IC50 (LoVo cells): 677 µM
APC(I-A,Y-A): mutant APC peptide 1250-KVSSINQETAQTACVEDTPI-1269, Ile1259 and Tyr1262 replaced with alanine (UniProt P25054 1250-1269, looked up, variant I1259A Y1262A) [reference compound]	did not show any effect	unaffected	not	not	not	–	–	–	not	–
APCwt: wild-type APC peptide of 20 amino acids, 1250-KVSSINQETIQTYCVEDTPI-1269, DNA repair inhibitory (DRI)-domain (UniProt P25054 1250-1269, looked up, fragment)	blocked	unaffected	dose-dependent decrease; also recorded: blocked	blocked	blocked	–	–	–	blocked	–
